Reference: US7767659B2, “Synthesis of naturally occurring ecteinascidins and related compounds” (Pharma Mar, S.A., priority 2002, dated 2010)

Columns and labels:
A-549 = assay: cells; conditions: Homo sapiens, A549, 48 h; for GI50: read-out: A549 GI50; for CC50: read-out: A549 LC50; for IC (TGI): read-out: A549 TGI
Method in brief: (§1)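 Colorimetric SRB read (490 nm) on triplicate wells after 48 h at 37 °C, 5% CO2. Dose range 10 to 10^−8 μg/ml; 5×10^3 cells/well pre-attached 18 h.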

HT-29 = assay: cells; conditions: Homo sapiens, HT-29, 48 h; for GI50: read-out: HT29 GI50; for CC50: read-out: HT29 LC50; for IC (TGI): read-out: HT29 TGI
Method in brief: as §1

A-498 = assay: Inhibition of cells growth by colorimetric assay (SRB)
Method in brief: as §1

DU-145 = assay: as above; conditions: Homo sapiens, DU-145, 48 h; for GI50: read-out: DU145 GI50; for CC50: read-out: DU145 LC50; for IC (TGI): read-out: DU145 TGI
Method in brief: as §1

MCF-7 = assay: as above
Method in brief: as §1

MDA-MB-231 = assay: as above
Method in brief: as §1

OVCAR-3 = assay: as above
Method in brief: as §1

SK-MEL-28 = assay: as above; conditions: Homo sapiens, SK-MEL-28, 48 h; for GI50: read-out: MEL-28 GI50; for CC50: read-out: MEL-28 LC50; for IC (TGI): read-out: MEL-28 TGI
Method in brief: as §1

SW620 = assay: as above
Method in brief: as §1

LoVo = assay: cells; conditions: Homo sapiens, LoVo, 48 h
Method in brief: as §1

[1] = Inhibition of cells growth by colorimetric assay (SRB); conditions: human
Method in brief: as §1

HMEC1 = assay: as above; conditions: for H-MEC-1 TGI: SRB, 48 hours exposure; for GI50: Homo sapiens, HMEC-1, 48 h, read-out: H-MEC-1 GI50
Method in brief: as §1

IGROV-1 = assay: as above; conditions: Homo sapiens, IGROV-1, 48 h
Method in brief: as §1

IGROV-ET = assay: as above; conditions: Homo sapiens, 48 h
Method in brief: as §1

K-562 = assay: as above; conditions: Homo sapiens, K562, 48 h
Method in brief: as §1

LNCaP = assay: as above; conditions: Homo sapiens, LNCaP, 48 h
Method in brief: as §1

LoVo-Dox = assay: as above; conditions: Homo sapiens, 48 h
Method in brief: as §1

PANC-1 = assay: as above; conditions: Homo sapiens, PANC-1, 48 h
Method in brief: as §1

SK-BR-3 = assay: as above; conditions: Homo sapiens, SK-BR-3, 48 h
Method in brief: as §1

SK-OV-3 = assay: as above
Method in brief: as §1

P-388 cells = assay: Inhibition of cell growth by counting cells; format: cell-based; conditions: Mus musculus, 72 h; p388 cells, three days of incubation
From the text: (§2) The finality of these assays is to interrupt the growth of a “in vitro” tumor cell culture by means a continued exhibition of the cells to the sample to be testing.
(§3) This form of the assay employs 24 well multidishes of 16 mm diameter (Bergeron, 1984; Schroeder, 1981). The tumor cell lines employed are: P-388 (ATCC CCL 46), suspension culture of a lymphoid neoplasm from a DBA/2 mouse; A-549 (ATCC CCL 185), monolayer culture of a human lung carcinoma; HT-29 (ATCC HTB-38), monolayer culture of a human colon carcinoma; MEL-28 (ATCC HTB-72), monolayer culture of a human melanoma and DU-145 (ATCC HTB-81), monolayer culture of a human prostate carcinoma.
(§4) Cells were maintained, in logarithmic phase of growth in Eagle's Minimum Essential Medium, with Earle's Balanced Salts, with non-essential amino acids, with 2.0 mM L-Glutamine, without sodium bicarbonate (EMEM/neaa), supplemented with 10% Fetal Calf Serum (FCS), 10^−2 M. sodium bicarbonate and 0.1 U/1 penicillin G+0.1 g/l streptomycin sulfate.
P-388 cells were seeded into 16 mm diameter wells at 1×10^4 cells per well in 1 ml aliquots of EMEM 5% FCS containing different concentrations of the sample to be tested. […]
For quantifying the activity, after the incubation time, cells are trypsinized and counted in a Coulter Counter ZM. […]

A-549 cells = assay: Inhibition of cell growth by counting cells; format: cell-based; conditions: Homo sapiens, 72 h; a549 cells, three days of incubation
From the text: as §2, §3, §4
(§5) A-549, HT-29, MEL-28 and DU-145 cells were seeded into 16 mm diameter wells at 1×10^4 cells per well in 1 ml aliquots of EMEM 5% FCS containing different concentrations of the sample to be tested. A separate set of cultures without drug was seeded as control of growth, to ensure that cells remained in exponential phase of growth. All determinations are caring out in duplicate. After three days of incubation at 37° C., 5% CO2 in a 98% humid atmosphere cells were stained with 0.1% crystal violet. An approximately IC50 was determined by comparing the growth in wells with drug to the growth in wells control.
(§6) For quantifying the activity, after the incubation time, cells are trypsinized and counted in a Coulter Counter ZM. All counts (net cells per well), represent the average of duplicate wells. % G, percent of growth relative to cultures without drug.
(§7) For this technique, compounds which show IC50 values smaller than 1 μg/ml are selected to continue with further studies.

HT-29 cells = assay: Inhibition of cell growth by counting cells; format: cell-based; conditions: Homo sapiens, HT-29, 72 h; ht29 cells, three days of incubation
From the text: as §2, §3, §4, §5, §6, §7

MEL-28 cells = assay: Inhibition of cell growth by counting cells; format: cell-based; conditions: Homo sapiens, SK-MEL-28, 72 h; mel28 cells, three days of incubation
From the text: as §2, §3, §4, §5, §6, §7

DU-145 cells = assay: Inhibition of cell growth by counting cells; format: cell-based; conditions: Homo sapiens, DU-145, 72 h; du145 cells, three days of incubation
From the text: as §2, §3, §4, §5, §6, §7

SMILES: COc1c(C)cc2c(c1O)C1C3[C@@H]4SCC(=O)C(=O)OC[C@@H](c5c6c(c(C)c(OC(C)=O)c54)OCO6)N3[C@@H](O)[C@H](C2)N1C (stereo partly drawn) [Et-594]
- GI50 (A-549): 49 nM
- CC50 (A-549): 654 nM
- IC (TGI) (A-549): 131 nM
- GI50 (HT-29): 49 nM
- CC50 (HT-29): 1630 nM
- IC (TGI) (HT-29): 98 nM
- A498 TGI (A-498; A498, SRB, 48 hours exposure): 3.27E−07 Molar
- GI50 (A-498; Homo sapiens, A498, 48 h, read-out: A498 GI50): 81.7 nM
- CC50 (A-498; Homo sapiens, A498, 48 h, read-out: A498 LC50): 11400 nM
- GI50 (DU-145): 32.7 nM
- CC50 (DU-145): 163 nM
- IC (TGI) (DU-145): 81.7 nM
- GI50 (MCF-7; Homo sapiens, MCF7, 48 h, read-out: MCF GI50): 32.7 nM
- CC50 (MCF-7; Homo sapiens, MCF7, 48 h, read-out: MCF LC50): 3270 nM
- MCF TGI (MCF-7; MCF, SRB, 48 hours exposure): 9.80E−08 Molar
- GI50 (MDA-MB-231; Homo sapiens, MDA-MB-231, 48 h, read-out: MB231 GI50): 32.7 nM
- CC50 (MDA-MB-231; Homo sapiens, MDA-MB-231, 48 h, read-out: MB231 LC50): 1630 nM
- MB231 TGI (MDA-MB-231; MB231, SRB, 48 hours exposure): 1.14E−07 Molar
- GI50 (OVCAR-3; Homo sapiens, OVCAR-3, 48 h, read-out: OVCAR GI50): 32.7 nM
- CC50 (OVCAR-3; Homo sapiens, OVCAR-3, 48 h, read-out: OVCAR LC50): 16300 nM
- OVCAR TGI (OVCAR-3; OVCAR, SRB, 48 hours exposure): 1.14E−07 Molar
- GI50 (SK-MEL-28): 32.7 nM
- CC50 (SK-MEL-28): 131 nM
- IC (TGI) (SK-MEL-28): 65.4 nM
- GI50 (SW620; Homo sapiens, SW-620, 48 h, read-out: SW-620 GI50): 32.7 nM
- CC50 (SW620; Homo sapiens, SW-620, 48 h, read-out: SW-620 LC50): 3270 nM
- SW-620 TGI (SW620; SW-620, SRB, 48 hours exposure): 9.80E−08 Molar

SMILES: COc1cc2c(cc1O)CCN[C@]21CS[C@@H]2c3c(OC(C)=O)c(C)c4c(c3[C@H](COC1=O)N1C[C@@H]3Cc5cc(C)c(OC)c(O)c5C(C21)N3C)OCO4 (stereo partly drawn) [Et-745]
- GI50 (A-549): 743 nM
- CC50 (A-549): 13400 nM
- IC (TGI) (A-549): 4770 nM
- GI50 (HT-29): 522 nM
- CC50 (HT-29): 13400 nM
- IC (TGI) (HT-29): 2650 nM
- GI50 (LoVo; read-out: LOVO GI50): 5550 nM
- CC50 (LoVo; read-out: LOVO LC50): 13400 nM
- IC (TGI) (LoVo; read-out: LOVO TGI): 13400 nM
- CC50 at 48 h [1]: 13400 nM
- GI50 (DU-145): 488 nM
- CC50 (DU-145): 13400 nM
- IC (TGI) (DU-145): 2670 nM
- H-MEC-1 TGI (HMEC1): 3.67E−06 Molar
- GI50 (HMEC1): 634 nM
- GI50 (IGROV-1; read-out: IGROV GI50): 774 nM
- CC50 (IGROV-1; read-out: IGROV LC50): 13400 nM
- IC (TGI) (IGROV-1; read-out: IGROV TGI): 3260 nM
- GI50 (IGROV-ET; read-out: IGROV-ET GI50): 3700 nM
- CC50 (IGROV-ET; read-out: IGROV-ET LC50): 13400 nM
- IC (TGI) (IGROV-ET; read-out: IGROV-ET TGI): 8450 nM
- GI50 (K-562; read-out: K562 GI50): 884 nM
- CC50 (K-562; read-out: K562 LC50): 13400 nM
- IC (TGI) (K-562; read-out: K562 TGI): 3900 nM
- GI50 (LNCaP; read-out: LNCAP GI50): 652 nM
- CC50 (LNCaP; read-out: LNCAP LC50): 9810 nM
- IC (TGI) (LNCaP; read-out: LNCAP TGI): 2390 nM
- GI50 (LoVo-Dox; read-out: LOVO-DOX GI50): 6250 nM
- CC50 (LoVo-Dox; read-out: LOVO-DOX LC50): 13400 nM
- IC (TGI) (LoVo-Dox; read-out: LOVO-DOX TGI): 13400 nM
- GI50 (PANC-1; read-out: PANC-1 GI50): 1320 nM
- CC50 (PANC-1; read-out: PANC-1 LC50): 13400 nM
- IC (TGI) (PANC-1; read-out: PANC-1 TGI): 9220 nM
- GI50 (SK-BR-3; read-out: SK-BR3 GI50): 629 nM
- CC50 (SK-BR-3; read-out: SK-BR3 LC50): 13400 nM
- IC (TGI) (SK-BR-3; read-out: SK-BR3 TGI): 3150 nM
- GI50 (SK-MEL-28): 602 nM
- CC50 (SK-MEL-28): 8620 nM
- IC (TGI) (SK-MEL-28): 2210 nM
- GI50 (SK-OV-3; Homo sapiens, SK-OV-3, 48 h, read-out: SK-OV3 GI50): 1320 nM
- CC50 (SK-OV-3; Homo sapiens, SK-OV-3, 48 h, read-out: SK-OV3 LC50): 13400 nM
- SK-OV3 TGI (SK-OV-3; SK-OV3, SRB, 48 hours exposure): 5.48E−06 Molar

SMILES: COc1c(C)cc2c(c1O)[C@@H]1C3[C@@H]4SCC(=O)C(=O)OC[C@@H](c5c6c(c(C)c(OC(C)=O)c54)OCO6)N3[C@@H](C#N)[C@H](C2)N1C (stereo partly drawn) [compound 16]
- IC50 (P-388 cells): 16.3 nM
- IC50 (A-549 cells): 16.3 nM
- IC50 (HT-29 cells): 16.3 nM
- IC50 (MEL-28 cells): 16.3 nM

SMILES: COc1c(C)cc2c(c1O)[C@@H]1C3[C@@H]4SCC(NC(C)=O)C(=O)OC[C@@H](c5c6c(c(C)c(OC(C)=O)c54)OCO6)N3[C@@H](C#N)[C@H](C2)N1C (stereo partly drawn) [compound 19]
- IC50 (P-388 cells): 0.753 nM
- IC50 (A-549 cells): 0.753 nM
- IC50 (DU-145 cells): 0.753 nM
- IC50 (HT-29 cells): 0.753 nM
- IC50 (MEL-28 cells): 0.753 nM

SMILES: COc1c(C)cc2c(c1O)[C@@H]1C3[C@@H]4SCC(=O)C(=O)NC[C@@H](c5c6c(c(C)c(OC(C)=O)c54)OCO6)N3[C@@H](C#N)[C@H](C2)N1C (stereo partly drawn) [compound 75]
- GI50 (A-549): 889 nM
- CC50 (A-549): 12700 nM
- IC (TGI) (A-549): 4010 nM
- GI50 (HT-29): 330 nM
- CC50 (HT-29): 16100 nM
- IC (TGI) (HT-29): 933 nM
- CC50 at 48 h [1]: 16100 nM
- H-MEC-1 TGI (HMEC1): 1.64E−06 Molar
- GI50 (HMEC1): 279 nM
